# Measured values: patent publication US9951292B2, “Grease composition” (TOTAL MARKETING SERVICES, priority 2011, dated 2018)
# How the values were obtained:
# algae and daphnia = test: Aquatic toxicity to algae and daphnia according to standards OECD 201 and 202; format: in vivo
# From the text: Preferably, the grease compositions according to the invention contain additives which are not hazardous to the environment and human health. Preferably, the grease compositions according to the invention are free from organic halogenated compounds, nitrite type compounds, metals or metallic compounds other than sodium, potassium, magnesium, calcium, lithium and/or aluminium. Preferably, the grease compositions according to the invention are not toxic to the aquatic environment. In particular the grease compositions according to the invention have an aquatic toxicity to algae, daphnia and fish of at least 1000 mg/l according to standards OECD 201, 202 and 203.
# Similarly, the main constituents of the grease, i.e. those present at more than 5% by mass with respect to the total mass of the grease composition, such as the base oil and the soap, have an aquatic toxicity to algae and daphnia of at least 100 mg/l according to standards OECD 201 and 202.
# Similarly, when a constituent has an aquatic toxicity to algae and daphnia of at least 100 mg/l according to standards OECD 201 and 202 (category D), said constituent can be present in the grease at any concentration. The grease compositions according to the invention have a concentration by mass of constituents having an aquatic toxicity to algae and daphnia comprised between 10 mg/l and 100 mg/l according to standards OECD 201 and 202 (category E), less than or equal to 25%. The grease compositions according to the invention have a concentration by mass of constituents having an aquatic toxicity to algae and daphnia comprised between 1 mg/l and 10 mg/l according to standards OECD 201 and 202 (category F), less than or equal to 2%, preferably less than or equal to 1%. This only concerns the constituents of the grease the concentration by mass in the grease of which is greater than or equal to 0.1%.
# [1] = Biodegradability according to standard OECD 301B
# From the text: This only concerns the constituents of the grease the concentration by mass in the grease of which is greater than or equal to 0.1%.
Compound,aquatic toxicity to algae and daphnia (algae and daphnia; in vivo),aquatic toxicity to algae and daphnia (algae and daphnia; OECD 201 and 202),"aquatic toxicity to algae and daphnia, category (algae and daphnia; OECD 201 and 202)",biodegradability [1] [%]
"CCCCCCCCCCCCCCCCCCOC(=O)CCc1cc(C(C)(C)C)c(O)c(C(C)(C)C)c1 [antioxidant 2, Octadecyl 3-(3,5-ditertiobutyl-4-hydroxyphenyl) propanoate]",over 100 mg/l,–,–,–
CCCCCCC(O)CCCCCCCCCCC(=O)[O-].[Li+] (centres unmarked) [lithium 12-hydroxystearate],–,over 100 mg/l,D (aquatic toxicity to algae and daphnia of at least 100 mg/l according to standards OECD 201 and 202 (category D)),–
Tolyltriazole [corrosion inhibitor 2],1 to 10 mg/L,–,–,4
